# Laboratory results taken from PMC6222292 (Computational and Structural Biotechnology Journal, 2018).
# Biological target: T1, soluble epoxide hydrolase (sEH) (Homo sapiens, UniProt P34913)
# T1 sequence (P34913 1-555): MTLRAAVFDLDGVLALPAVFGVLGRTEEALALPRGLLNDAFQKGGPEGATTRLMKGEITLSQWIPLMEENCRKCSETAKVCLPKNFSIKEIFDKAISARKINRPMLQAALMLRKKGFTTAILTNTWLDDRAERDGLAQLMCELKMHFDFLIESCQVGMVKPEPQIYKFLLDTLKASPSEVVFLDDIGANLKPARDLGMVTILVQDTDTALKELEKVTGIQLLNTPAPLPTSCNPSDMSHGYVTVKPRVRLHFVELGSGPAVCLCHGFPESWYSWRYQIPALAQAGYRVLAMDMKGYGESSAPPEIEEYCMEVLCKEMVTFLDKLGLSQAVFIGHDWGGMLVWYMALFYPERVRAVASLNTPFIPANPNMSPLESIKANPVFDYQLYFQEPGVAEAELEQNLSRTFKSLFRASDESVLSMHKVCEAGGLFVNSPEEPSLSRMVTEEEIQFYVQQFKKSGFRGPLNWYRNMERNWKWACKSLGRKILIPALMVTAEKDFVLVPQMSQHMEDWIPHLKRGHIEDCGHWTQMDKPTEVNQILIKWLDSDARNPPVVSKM
# Assay: fluorescent PHOME hydrolysis assay
# Type: biochemical
row,IC50 [µM],SMILES
1,10.4 ± 1.1,"COc1cc(/C=C/C(=O)NCCc2ccc(O)cc2)ccc1O [compound 2, N-trans-feruloyltyramine]"
2,9 ± 0.8,"O=C(/C=C/c1ccc(O)cc1)NCCc1ccc(O)cc1 [compound 1, N-trans-coumaroyltyramine]"
